Assays:
B. subtilis 168 [1] = experiment: fitness (endpoint OD595 vs no drug) (fraction); higher = more growth
In short: (§1)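 In 384-well plates at 37 °C, cultures began at OD595 0.01 in 30 µl, with 55 µl used for S. pneumoniae. OD595 readings every 30 min for 14 h were corrected by the first reading. Fitness divides the stationary-phase transition optical density by the robust mean of no-drug control wells. The result is capped at 1.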

S. pneumoniae D39V [2] = experiment: as above
In short: as §1

S. aureus Newman [3] = experiment: as above
In short: as §1

S. aureus DSM 20231 = experiment: Bliss interaction score (quartile over a dose matrix) (fitness difference); higher = more antagonism (negative = synergy)
In short: (§2)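 Each OD595 reading at entry into stationary phase was scaled to the robust mean of the untreated wells on its plate, with a ceiling of 1. These ratios define fitness, and single-drug fitness was inferred from combinations. The Bliss score compares observed fitness with the product-based expectation and is reported as quartiles across all replicate types, technical, biological and donor/recipient.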

B. subtilis 168 [4] = experiment: as above
In short: as §2

S. pneumoniae D39V [5] = experiment: as above
In short: as §2

S. aureus Newman [6] = experiment: as above
In short: as §2
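Throughout, for Bliss interaction score (quartile over a dose matrix): first quartile when negative (synergy) and third quartile when positive (antagonism).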
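Throughout, for fitness (endpoint OD595 vs no drug): OD595 on entry to stationary phase over no-drug wells; at most 1.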

CNC(C)C1CCC(N)C(OC2C(N)CC(N)C(OC3OCC(C)(O)C(NC)C3O)C2O)O1 (configuration not stated) [Gentamicin] + CN[C@@H]1[C@H](O[C@H]2[C@H](O[C@H]3[C@H](O)[C@@H](O)[C@H](N=C(N)N)[C@@H](O)[C@@H]3N=C(N)N)O[C@@H](C)[C@]2(O)C=O)O[C@@H](CO)[C@H](O)[C@H]1O [Streptomycin]
fitness, main component drawn
Conditions | partner 1 µg/mL | partner 2 µg/mL | partner 4 µg/mL | partner 8 µg/mL
B. subtilis 168 [1], first compound 0.125 µg/mL | – | – | – | 0.0351
B. subtilis 168 [1], first compound 0.25 µg/mL | – | 0.0785 | 0.05 | 0.0399
S. aureus Newman [3], first compound 0.375 µg/mL | ≥ 1 | 0.929 | – | –
S. aureus Newman [3], first compound 0.5 µg/mL | 0.957 | 0.953 | 0.978 | –
S. aureus Newman [3], first compound 0.75 µg/mL | 0.99 | 0.848 | – | –
S. aureus Newman [3], first compound 1 µg/mL | 0.991 | ≥ 1 | ≥ 1 | –
S. aureus Newman [3], first compound 2 µg/mL | 0.996 | ≥ 1 | 0.946 | –
S. pneumoniae D39V [2], first compound 2 µg/mL | – | 0.918 | 0.922 | 0.899
S. pneumoniae D39V [2], first compound 4 µg/mL | – | 0.895 | 0.942 | 0.848
S. pneumoniae D39V [2], first compound 8 µg/mL | – | 0.912 | 0.912 | 0.836

S. pneumoniae D39V [2], partner 16 µg/mL, one replicate, main component drawn
Conditions | fitness
first compound 2 µg/mL | 0.779
first compound 4 µg/mL | 0.736
first compound 8 µg/mL | 0.628

main component drawn
Conditions | Bliss interaction score
B. subtilis 168 [4] | -0.17
S. aureus DSM 20231 | -0.404
S. aureus Newman [6] | 0.0694
S. pneumoniae D39V [5] | 0.0468

CNC(C)C1CCC(N)C(OC2C(N)CC(N)C(OC3OCC(C)(O)C(NC)C3O)C2O)O1 (configuration not stated) [Gentamicin] + Cc1ncc([N+](=O)[O-])n1CCO [Metronidazole]
fitness, main component drawn
Conditions | partner 0.625 µg/mL | partner 0.781 µg/mL | partner 1.073 µg/mL | partner 1.25 µg/mL | partner 1.562 µg/mL | partner 2.145 µg/mL | partner 2.5 µg/mL | partner 3.124 µg/mL | partner 4.29 µg/mL | partner 5 µg/mL
B. subtilis 168 [1], first compound 0.0625 µg/mL | 0.897 | – | – | 0.926 | – | – | 0.922 | – | – | –
B. subtilis 168 [1], first compound 0.25 µg/mL | 0.0729 | – | – | – | – | – | 0.0383 | – | – | –
S. aureus Newman [3], first compound 0.5 µg/mL | 0.995 | 0.92 | – | 0.979 | 0.911 | – | ≥ 1 | 0.913 | – | –
S. aureus Newman [3], first compound 1 µg/mL | ≥ 1 | ≥ 1 | – | 0.974 | ≥ 1 | – | 0.986 | ≥ 1 | – | –
S. aureus Newman [3], first compound 2 µg/mL | ≥ 1 | ≥ 1 | – | 0.981 | ≥ 1 | – | ≥ 1 | ≥ 1 | – | –
S. pneumoniae D39V [2], first compound 2 µg/mL | – | – | 0.983 | 0.985 | – | 0.864 | ≥ 1 | – | 0.8 | 0.996
S. pneumoniae D39V [2], first compound 4 µg/mL | – | – | 0.976 | 0.992 | – | 0.987 | ≥ 1 | – | 0.827 | 0.986
S. pneumoniae D39V [2], first compound 8 µg/mL | – | – | 0.98 | 0.955 | – | 0.96 | 0.959 | – | 0.942 | 0.959

fitness, S. aureus Newman [3], one replicate, main component drawn
Conditions | first compound 0.375 µg/mL | first compound 0.75 µg/mL | first compound 1.5 µg/mL
partner 0.625 µg/mL | 0.94 | 0.944 | 0.951
partner 1.25 µg/mL | ≥ 1 | ≥ 1 | ≥ 1
partner 2.5 µg/mL | ≥ 1 | ≥ 1 | ≥ 1

main component drawn
Conditions | Bliss interaction score
B. subtilis 168 [4] | -0.0531
S. aureus DSM 20231 | 0.0225
S. aureus Newman [6] | 0.0412
S. pneumoniae D39V [5] | 0.0587

CC1=C(C(=O)O)N2C(=O)[C@@H](NC(=O)[C@H](N)c3ccccc3)[C@H]2SC1 [Cephalexin] + COc1ccc(C[C@H](N)C(=O)N[C@H]2[C@@H](O)[C@H](n3cnc4c(N(C)C)ncnc43)O[C@@H]2CO)cc1 [Puromycin]
fitness
Conditions | first compound 0.125 µg/mL | first compound 0.25 µg/mL | first compound 0.5 µg/mL | first compound 1 µg/mL
B. subtilis 168 [1], partner 0.39 µg/mL | 0.944 | 0.912 | 0.869 | –
B. subtilis 168 [1], partner 0.78 µg/mL | 0.952 | 0.891 | 0.935 | –
B. subtilis 168 [1], partner 1.56 µg/mL | 0.921 | 0.888 | 0.938 | –
S. aureus Newman [3], partner 0.39 µg/mL | – | 0.991 | ≥ 1 | 0.99
S. aureus Newman [3], partner 0.78 µg/mL | – | ≥ 1 | ≥ 1 | ≥ 1
S. aureus Newman [3], partner 1.56 µg/mL | – | ≥ 1 | 0.976 | 0.991

fitness, S. pneumoniae D39V [2], one replicate
Conditions | first compound 0.125 µg/mL | first compound 0.25 µg/mL | first compound 0.5 µg/mL | first compound 1 µg/mL | first compound 2 µg/mL | first compound 4 µg/mL
partner 1 µg/mL | ≥ 1 | ≥ 1 | ≥ 1 | 0.158 | 0.0772 | 0.0589
partner 2 µg/mL | 0.939 | 0.926 | ≥ 1 | 0.3 | 0.0861 | 0.055
partner 4 µg/mL | 0.798 | 0.883 | 0.893 | 0.0824 | 0.0686 | 0.047

Conditions | Bliss interaction score
B. subtilis 168 [4] | 0.0628
S. aureus DSM 20231 | 0.0696
S. aureus Newman [6] | 0.043
S. pneumoniae D39V [5] | -0.101

Cn1c2cccc(=O)c-2nc2ccccc21 [Pyocyanin] + CN[C@@H]1[C@H](O[C@H]2[C@H](O[C@H]3[C@H](O)[C@@H](O)[C@H](N=C(N)N)[C@@H](O)[C@@H]3N=C(N)N)O[C@@H](C)[C@]2(O)C=O)O[C@@H](CO)[C@H](O)[C@H]1O [Streptomycin]
fitness
Conditions | partner 1 µg/mL | partner 2 µg/mL | partner 4 µg/mL | partner 8 µg/mL
B. subtilis 168 [1], first compound 1.25 µg/mL | – | 0.938 | 0.765 | –
B. subtilis 168 [1], first compound 2.5 µg/mL | – | 0.929 | 0.879 | –
B. subtilis 168 [1], first compound 5 µg/mL | – | 0.818 | 0.791 | 0.686
S. aureus Newman [3], first compound 1.25 µg/mL | 0.891 | 0.844 | – | –
S. aureus Newman [3], first compound 2.5 µg/mL | 0.796 | 0.693 | – | –
S. aureus Newman [3], first compound 5 µg/mL | 0.427 | 0.308 | 0.253 | –
S. pneumoniae D39V [2], first compound 0.325 µg/mL | – | ≥ 1 | ≥ 1 | 0.935
S. pneumoniae D39V [2], first compound 0.65 µg/mL | – | 0.943 | 0.889 | 0.791
S. pneumoniae D39V [2], first compound 1.3 µg/mL | – | – | 0.734 | 0.592

fitness, S. pneumoniae D39V [2], one replicate
Conditions | first compound 0.325 µg/mL | first compound 0.65 µg/mL | first compound 1.3 µg/mL
partner 2 µg/mL | – | – | 0.756
partner 16 µg/mL | 0.649 | 0.61 | 0.475

Conditions | Bliss interaction score
B. subtilis 168 [4] | 0.474
S. aureus DSM 20231 | 0.109
S. aureus Newman [6] | -0.0643
S. pneumoniae D39V [5] | -0.103
